The results in this text go back to patent publication US20040044013A1, “1-dimercaptoalkylquinazolin-2,4(1h,3h)-diones as matrix metalloproteinase (mmp) inhibitors” (priority 2001, published 2004).

Common to all, as to type: biochemical
In one experiment the target is T1, MMP-2 (Homo sapiens, UniProt P08253).
T1 construct: endogenous in cells; host or cells: cultured human dermal fibroblasts (secreted into culture supernatant)
T1 sequence (P08253 110-660): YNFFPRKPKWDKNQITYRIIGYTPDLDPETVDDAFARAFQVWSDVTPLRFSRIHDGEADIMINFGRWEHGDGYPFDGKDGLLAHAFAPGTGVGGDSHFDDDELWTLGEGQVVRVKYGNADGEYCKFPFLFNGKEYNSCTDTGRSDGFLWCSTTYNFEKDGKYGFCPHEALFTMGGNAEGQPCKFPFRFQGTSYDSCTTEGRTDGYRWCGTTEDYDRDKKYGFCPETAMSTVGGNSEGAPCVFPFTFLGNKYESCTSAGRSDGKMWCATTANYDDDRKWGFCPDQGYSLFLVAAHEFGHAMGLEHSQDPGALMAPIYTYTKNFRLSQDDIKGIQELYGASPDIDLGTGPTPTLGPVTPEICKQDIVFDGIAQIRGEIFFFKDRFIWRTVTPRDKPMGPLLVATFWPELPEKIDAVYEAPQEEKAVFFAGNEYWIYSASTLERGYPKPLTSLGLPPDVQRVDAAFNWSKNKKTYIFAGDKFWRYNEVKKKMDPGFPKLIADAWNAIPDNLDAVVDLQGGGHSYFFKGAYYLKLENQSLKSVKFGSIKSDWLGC
Put plainly: Quantitative fluorescence assay for matrix metalloproteinases, MMP-2. The method, then: Inhibition of Matrix Metalloproteinase-2 (MMP-2)
MMP-2 (gelatinase) is supplied by cultured dermal fibroblasts to the culture medium in considerable amounts and is thus easily accessible.
For this purpose, human dermal fibroblasts are obtained according to established standard methods and cultured and the cell-free culture supernatant is treated with trypsin. Trypsin is then inactivated with a specific inhibitor (TLCK) and active MMP-2 is partially purified by affinity chromatography on gelatin sepharose and subsequent gel filtration on sepharose. MMP-2 was identified and characterized by the availability of a commercial immunoassay.
(§1) Quantitative Fluorescence Assay for Matrix Metalloproteinases
The fluorescent group Mca is separated from the internal quencher Dpa by enzymatic cleavage of the synthetic substrate Mca-Pro-Leu-Gly-Leu-Dpa-Ala-Arg-NH2 using the respective collagenase. This is accompanied by a great increase in fluorescence in the measuring batch, which can be quantified using a fluorimeter (λex 328 nm, λem 393 nm) and proceeds linearly within the first few minutes. A certain specificity of the test to matrix metalloproteinases follows from the amino acid sequence -Pro-Leu-Gly-Leu- in the substrate, on the one hand, and from the select incubation conditions, on the other hand. Matrix metalloproteinases cleave the substrate at the Gly-Leu bond. The proteolytic residual activity of pre-incubated batches of enzyme and inhibitor is measured, the substrate and enzyme concentrations having been kept constant and the inhibitor concentration having been varied. Three series of measurements using a different substrate concentration were made for each tested inhibitor.
[…] inhibitor dissolved in DMSO, or DMSO alone (non-inhibitory approach) 4 μl enzyme (MMP-2 or MMP-9 or catalytic domain of MMP-8)
(§2) 5 min. preliminary incubation of the enzyme-inhibitor mixture at room temperature while stirring start of the reaction with 10 μl substrate dissolved in DMSO recording of the time-sensitive fluorescence increase over a period of 2 min.

Experiment [1] addresses T2, recombinant catalytic domain of MMP-3 (Homo sapiens, UniProt P08254).
T2 construct: Cloning and Expression of the Catalytic Domains of MT1-MMP and MMP-3; made in house; host or cells: Escherichia coli (inclusion bodies, renatured)
Put plainly: Quantitative fluorescence assay for matrix metalloproteinases, MMP-3.
Text: (§3) Cloning and Expression of the Catalytic Domains of MT1-MMP and MMP-3
(§4) Based on the good experience with the use of the catalytic domain of MMP-8 in the kinetic measurements, two more recombinant expressions were established analogously, i.e. that of human membrane type 1 matrix metalloproteinase (MT1-MMP; MMP-14) and that of human MMP-3 (stromelysin-1). Both enzymes are exemplary representatives of subgroups of human matrix metalloproteinases. Both proteins may be renatured stably and in catalytically active form from inclusion bodies of transformed Escherichia coli cells. As in the recombinant MMP-8 thus the subsequent activation of the enzymes is dropped, which improves the reproducibility of the kinetic measurements. The purity of the recombinant enzyme domains was at least 70%.
The cloning and expression of the catalytic domains oriented itself by the following publications: Lichte A., Kolkenbrock H., Tschesche H.: The recombinant catalytic domain of membrane-type matrix metalloproteinase-1 (MT1-MMP) induces activation of progelatinase A and progelatinase A complexed with TIMP-2. […]
as §1
(§5) The fluorescent group Mca is separated from the internal quencher Dpa by enzymatic cleavage of the synthetic substrate Mca-Pro-Leu-Gly-Leu-Dpa-Ala-Arg-NH2 using the respective collagenase. This is accompanied by a great increase in fluorescence in the measuring batch, which can be quantified using a fluorimeter (λex 328 nm, λem 393 nm) and proceeds linearly within the first few minutes. […] The proteolytic residual activity of pre-incubated batches of enzyme and inhibitor is measured, the substrate and enzyme concentrations having been kept constant and the inhibitor concentration having been varied. […]
as §2

Experiment [2] deals with T3, catalytic domain of MMP-8 (Homo sapiens, UniProt P22894).
T3 construct: instead of the whole enzyme only its enzymatically active catalytic domain was cloned into E. coli; made in house; host or cells: E. coli
Put plainly: Quantitative fluorescence assay for matrix metalloproteinases, MMP-8.
Text: Cloning and Expression of the Catalytic MMP-8 Domain
The catalytic MMP-8 domain was used as another test enzyme because it has a high degree of stability and is also available as an active enzyme and therefore needs not be activated, which is in consideration as one of the most frequent causes of error since the mercury compounds used for the activation often interfere with the test system and/or the enzyme and in this way can falsify the measuring results. The cloning strategy was directed towards the circumstance that instead of the whole enzyme only its enzymatically active catalytic domain was cloned into E. coli.
The cloning and expression of the recombinant catalytic MMP-8 domain was carried out in accordance with the information given by SCHNIERER et al. (Schnierer S., Kleine T., Gote T., Hillemann A., Knauper V., Tschesche H.: The recombinant catalytic domain of human neutrophil collagenase lacks type I collagen substrate specificity. Biochem Biophys Res Comm (1993), vol. 191, No. 2, 319-326).
as §1, §5, §2

For a further experiment, the target named is T4, MMP-9 (Homo sapiens, UniProt P14780).
T4 construct: from tissue; host or cells: human buffy coat (leukocytes)
The experiment is described as follows: Quantitative fluorescence assay for matrix metalloproteinases, MMP-9. Here is the method: Preparation of the Human Collagenase MMP-9
Native MMP-9 was obtained reproducibly and with good yield and purity from human Buffy Coat. For this purpose, Buffy Coat is brought to a final concentration of 0.4% using 10% (v/v) triton X-100, shaken on ice for 30 min. and then 1 vol. double binding buffer (40 mM Tris-HCl, pH 7.5, 10 mM CaCl2, 1 M NaCl, 0.2% (v/v) triton X-100) is added and shaking on ice is continued for another 30 min.
The solution is centrifuged off at 16,000 rpm on an SS-34 rotor at 4° C. for 15 min. and filtered on glass wool. The filtrate is batched with gelatin agarose equilibrated with binding buffer and shaken on ice for 1 hour.
The charged gelatin agarose is transferred to a column and rinsed in protein-free manner using at least 10 vol. binding buffer. The bound MMP-9 is eluted with 2 gel volumes binding buffer plus 5% (v/v) DMSO.
For an exchange of buffers and simultaneous separation of minor MMP-2 contaminations the eluate can be separated on sephadex G-75 by means of gel filtration. Buffer I (20 mM Tris-HCl, pH 7.5, 5 mM CaCl2, 100 mM NaCl, 0.1% (v/v) triton X-100) is used for this purpose. […]
as §1, §5, §2

For experiment [3], the target named is T5, recombinant catalytic domain of MT1-MMP (MMP-14) (Homo sapiens, UniProt P50281).
T5 construct: Cloning and Expression of the Catalytic Domains of MT1-MMP and MMP-3; made in house; host or cells: Escherichia coli (inclusion bodies, renatured)
Put plainly: Quantitative fluorescence assay for matrix metalloproteinases, MT1-MMP.
Text: as §3
as §4, with “The purity of the recombinant enzyme domains was at least 70%.” left out
as §1, §5

T3 sequence (P22894 100-262 limits assumed): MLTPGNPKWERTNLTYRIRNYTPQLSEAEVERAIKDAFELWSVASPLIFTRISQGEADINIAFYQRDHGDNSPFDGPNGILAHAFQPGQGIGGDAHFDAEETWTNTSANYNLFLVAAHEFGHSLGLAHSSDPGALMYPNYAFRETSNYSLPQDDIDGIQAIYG
T2 sequence (P08254 100-272 limits assumed): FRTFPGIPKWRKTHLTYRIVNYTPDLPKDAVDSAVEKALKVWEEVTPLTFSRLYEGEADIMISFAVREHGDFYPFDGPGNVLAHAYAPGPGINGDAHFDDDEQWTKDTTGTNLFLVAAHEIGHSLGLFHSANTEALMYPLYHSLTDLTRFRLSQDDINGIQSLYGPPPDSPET
T4 sequence (P14780 107-707 limits assumed): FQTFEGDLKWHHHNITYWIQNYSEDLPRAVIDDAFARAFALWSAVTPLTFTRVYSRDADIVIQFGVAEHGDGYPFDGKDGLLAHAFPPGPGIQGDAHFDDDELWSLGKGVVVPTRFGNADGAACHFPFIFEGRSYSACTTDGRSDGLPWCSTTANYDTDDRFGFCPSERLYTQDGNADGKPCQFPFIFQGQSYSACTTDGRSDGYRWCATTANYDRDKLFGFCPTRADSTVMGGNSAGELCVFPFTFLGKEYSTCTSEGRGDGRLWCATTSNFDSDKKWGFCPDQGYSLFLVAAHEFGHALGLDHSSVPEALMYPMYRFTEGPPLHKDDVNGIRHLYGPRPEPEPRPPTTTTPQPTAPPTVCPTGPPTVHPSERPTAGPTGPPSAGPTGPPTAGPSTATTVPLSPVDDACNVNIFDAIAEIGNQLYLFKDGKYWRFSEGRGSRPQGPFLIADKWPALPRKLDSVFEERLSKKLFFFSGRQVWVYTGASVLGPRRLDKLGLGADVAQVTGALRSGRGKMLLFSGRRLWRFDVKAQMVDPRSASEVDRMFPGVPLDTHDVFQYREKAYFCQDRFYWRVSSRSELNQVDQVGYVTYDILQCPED

Compound `O=c1[nH]c(=O)n(CC(S)CS)c2ccccc12` (racemic) [Example 2, (R,S)-1-(2′,3′-Dimercapto-prop-1′-yl)quinazoline-2,4(1H,3H)-dione] yielded an MMP-2 inhibition on MMP-2 (with 4 μM inhibitor) of 75%. Also, the MMP-3 inhibition in experiment [1] (with 4 μM inhibitor) is reported as 75%. The compound also showed an MMP-8 inhibition in experiment [2] (with 4 μM inhibitor) of 75%. Further, the MMP-9 inhibition on MMP-9 (with 4 μM inhibitor) came out at 80%. Also, the MT1-MMP inhibition in experiment [3] (with 4 μM inhibitor) was 60%.

`O=c1[nH]c(=O)n(CCC(S)CS)c2ccccc12` (racemic) [Example 3, (R,S)-1-(3′,4′-Dimercapto-but-1′-yl)quinazoline-2,4(1H,3H)dione]: at MMP-2 (with 5 μM inhibitor), the MMP-2 inhibition was determined as 50%. For the same compound, the MMP-3 inhibition in experiment [1] (with 9 μM inhibitor) worked out at 50%. In experiment [2] (with 3.5 μM inhibitor), the MMP-8 inhibition is 50%. At MMP-9 (with 3.5 μM inhibitor), this compound came in with an MMP-9 inhibition of 50%.

On MMP-2 (with 10 μM inhibitor), `O=c1[nH]c(=O)n(C(CS)CS)c2ccccc12` [Example 1, 1-(1′,3′-Dimercapto-prop-2′-yl)quinazoline-2,4(1H,3H)dione] had an MMP-2 inhibition of 50%. Moreover, in experiment [1] (with 10 μM inhibitor), the MMP-3 inhibition amounted to 50%. Moreover, the MMP-8 inhibition in experiment [2] (with 10 μM inhibitor) was determined as 70%. In addition, on MMP-9 (with 10 μM inhibitor), the MMP-9 inhibition amounted to 60%. Moreover, the MT1-MMP inhibition in experiment [3] (with 10 μM inhibitor) was found to be 30% inhi-.
